Experimental data: ChEMBL document CHEMBL5131444, “Essential structure of orexin 1 receptor antagonist YNT-707: Conversion of the 16-cyclopropylmethyl group to the 16-sulfonamide group in d-nor-nalfurafine derivatives” (Bioorg Med Chem Lett, 2022)

Assays:
[1] = molecular target: T1, Orexin/Hypocretin receptor type 1 (Homo sapiens, UniProt O43613); assay: Antagonist activity at OX1R (unknown origin) by cell-based calcium assay; type: functional
T1 sequence (O43613 whole entry): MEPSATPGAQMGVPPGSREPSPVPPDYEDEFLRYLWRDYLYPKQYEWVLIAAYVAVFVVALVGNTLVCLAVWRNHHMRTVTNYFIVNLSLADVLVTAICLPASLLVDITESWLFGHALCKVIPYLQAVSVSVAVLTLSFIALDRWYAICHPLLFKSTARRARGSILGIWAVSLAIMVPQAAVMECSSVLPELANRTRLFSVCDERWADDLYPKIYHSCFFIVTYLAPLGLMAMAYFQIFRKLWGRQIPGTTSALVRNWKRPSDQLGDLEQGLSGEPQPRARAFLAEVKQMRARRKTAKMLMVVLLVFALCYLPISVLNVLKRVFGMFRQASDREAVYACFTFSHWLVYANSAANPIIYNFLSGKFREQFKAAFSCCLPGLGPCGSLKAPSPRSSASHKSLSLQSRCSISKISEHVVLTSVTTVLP

Orexin receptor type 2 = molecular target: T2, Orexin receptor type 2 (Homo sapiens, UniProt O43614); assay: Antagonist activity at OX2R (unknown origin) by cell-based calcium assay
T2 sequence (O43614 whole entry): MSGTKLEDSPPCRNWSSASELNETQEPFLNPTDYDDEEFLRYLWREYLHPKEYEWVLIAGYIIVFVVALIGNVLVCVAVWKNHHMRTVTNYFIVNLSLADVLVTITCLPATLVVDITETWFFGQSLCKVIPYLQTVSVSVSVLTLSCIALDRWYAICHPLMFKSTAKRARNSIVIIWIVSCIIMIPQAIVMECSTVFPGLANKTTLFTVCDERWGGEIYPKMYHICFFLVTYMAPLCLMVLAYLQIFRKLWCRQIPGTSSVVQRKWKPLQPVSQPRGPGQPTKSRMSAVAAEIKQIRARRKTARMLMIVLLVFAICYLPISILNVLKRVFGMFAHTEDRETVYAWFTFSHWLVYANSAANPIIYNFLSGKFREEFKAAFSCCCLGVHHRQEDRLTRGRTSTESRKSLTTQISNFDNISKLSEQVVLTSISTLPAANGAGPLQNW

Compound	Ki [1] [nM]	IC50 (Orexin receptor type 2) [nM]	Ki (Orexin receptor type 2) [nM]
COc1ccc2c3c1O[C@H]1[C@H](N(C)C(=O)/C=C/c4ccoc4)CC[C@@]4(O)[C@@H](C2)N(S(=O)(=O)c2ccccc2)CC[C@]314	16.8	> 10000	–
COc1ccc2c3c1O[C@H]1[C@H](N(C)C(=O)/C=C/c4ccoc4)CC[C@@]4(O)[C@@H](C2)N(S(=O)(=O)c2ccccc2N(C)C)CC[C@]314	4.75	–	1300
COc1ccc2c3c1O[C@H]1[C@H](N(C)C(=O)/C=C/c4ccoc4)CC[C@H]4[C@@H](C2)N(S(=O)(=O)c2ccccc2N(C)C)CC[C@@]341	53.5	> 10000	–
COc1ccc2c3c1O[C@H]1[C@H](N(C)C(=O)/C=C/c4ccoc4)CC[C@H]4[C@@H](C2)N(S(=O)(=O)c2ccccc2)CC[C@@]341	23.6	> 10000	–
COc1ccc2c3c1O[C@H]1[C@H](N(C)C(=O)/C=C/c4ccoc4)CC=C4[C@@H](C2)N(S(=O)(=O)c2ccccc2N(C)C)CC[C@]431	8.82	> 10000	–
COc1ccc2c3c1O[C@H]1[C@H](N(C)C(=O)/C=C/c4ccoc4)CC=C4[C@@H](C2)N(S(=O)(=O)c2ccccc2)CC[C@]431	2.34	> 10000	–
